Source: ChEMBL document CHEMBL1127143, “New -lactam homologs of penems” (1993)
Values after ≈ are worked out from the molar mass of the structure shown.

Assays:
actinomadura species = experiment: Compound was tested for percent inhibition of D,D - Carboxypeptidase from Actinomadura sp. R39 at 100 uM concentration
Staphylococcus aureus = experiment: Minimum inhibitory concentration for the antibacterial activity against Staphylococcus aureus; type: functional

- inhibition (actinomadura species): 15%
- MIC (Staphylococcus aureus): 320 µg/mL (≈ 845 µM)
SMILES: CCSC1=C(C(=O)O)N2C(=O)C(NC(=O)Cc3ccccc3)CC2S1 (configuration not stated)
